Type in all cases: cell-based
For experiment [1], the system named is B×PC3 cells (human pancreatic cancer cell line). In words: Inhibition of cell proliferation, xCelligence cell index. As to conditions: 72 hr post compound treatment, read-out: calculated IC50. The source says: (§1) The biological activity of compounds disclosed herein was monitored and profiled using the Real-Time Cell Electronic Sensing (RT-CES®) system from ACEA Biosciences, Inc. The RT-CES system utilizes cell-substrate impedance technology to monitor cellular behavior inside tissue culture wells in a microtiter plate format. The technology features in the integration of molecular and cell biology with microelectronics and is based on the electronic detection of biological assay process. The details of this cell electronic sensing technology and associated devices, systems and methods of use are described in U.S. Pat. No. 7,167,585; U.S. Pat. No. 7,468,255; PCT publication number WO 2004/010102; U.S. Pat. No. 7,470,533; and U.S. Pat. No. 7,459,303, each of which is incorporated herein by reference. Additional details of RT-CES technology are further disclosed in U.S. Pat. No. 7,468,255.
(§2) For measurement of cell-substrate or cell-electrode impedance using RT-CES technology, microelectrodes having appropriate geometries are fabricated onto the bottom surfaces of microtiter plate or similar device, facing into the wells. […] When there are changes to the biological status of the cells analogue electronic readout signals are measured automatically and in real time, and are converted to digital signals for processing and for analysis. In a RT-CES system, a cell index (arbitrary representation of change in impedance) is automatically derived and provided based on measured electrode impedance values. […]
(§3) To quantify cell status based on the measured cell-electrode impedance, a parameter termed Cell Index is derived. Cell Index is a quantitative measure of the status of the cells in an electrode-containing well. […]
B×PC3 cells (human pancreatic cancer cell line) were seeded into wells of 96 well E-plate devices (Roche) with an initial seeding density of 5000 cells per well and were pre-incubated in incubator under standard cell culture condition for about 24 hours. […] The cell status was monitored prior to and after the compound addition using xCelligence system (Roche). […]

The test system of experiment [2] is U118MG cells (human brain cancer cell line). The description is as above. The note with it: U-118-MG, 72 hr post compound treatment, read-out: calculated IC50.
Excerpt: For measurement of cell-substrate or cell-electrode impedance using RT-CES technology, microelectrodes having appropriate geometries are fabricated onto the bottom surfaces of microtiter plate or similar device, facing into the wells. Cells are introduced into the wells of the devices, and make contact to and attach to the electrode surfaces. The presence, absence or change of properties of cells affects the electronic and ionic passage on the electrode sensor surfaces. Measuring the impedance between or among electrodes provides important information about biological status of cells present on the sensors. When there are changes to the biological status of the cells analogue electronic readout signals are measured automatically and in real time, and are converted to digital signals for processing and for analysis. In a RT-CES system, a cell index (arbitrary representation of change in impedance) is automatically derived and provided based on measured electrode impedance values. The cell index obtained for a given well reflects: 1) how many cells are attached to the electrode surfaces in this well; 2) how well cells are attached to the electrode surfaces in this well. […]
U118MG cells (human brain cancer cell line) were seeded into wells of 96 well E-plate devices (Roche) with an initial seeding density of 5000 cells per well and were pre-incubated in incubator under standard cell culture condition for about 24 hours. […] The cell status was monitored prior to and after the compound addition using xCelligence system (Roche). […]
Experiment [3] has as its system A172 cells (human brain cancer cell line). Described as above. The note with it: A 172, 72 hr post compound treatment, read-out: calculated IC50.
In experiment [4] the test system is H2347 cells (human non-small cell lung cancer cell line). The description is as above. The note with it: NCI-H2347, 72 hr post compound treatment, read-out: calculated IC50.
Excerpt: The biological activity of compounds disclosed herein was monitored and profiled using the Real-Time Cell Electronic Sensing (RT-CES®) system from ACEA Biosciences, Inc. The RT-CES system utilizes cell-substrate impedance technology to monitor cellular behavior inside tissue culture wells in a microtiter plate format. The technology features in the integration of molecular and cell biology with microelectronics and is based on the electronic detection of biological assay process. […]
as §2, §3

The subject of experiment [5] is GTL16 cells (human gastric cancer cell line). The experiment is described as above. The note with it: GTL 16, 72 hr post compound treatment, read-out: calculated IC50.
Excerpt: as §1
For measurement of cell-substrate or cell-electrode impedance using RT-CES technology, microelectrodes having appropriate geometries are fabricated onto the bottom surfaces of microtiter plate or similar device, facing into the wells. Cells are introduced into the wells of the devices, and make contact to and attach to the electrode surfaces. The presence, absence or change of properties of cells affects the electronic and ionic passage on the electrode sensor surfaces. Measuring the impedance between or among electrodes provides important information about biological status of cells present on the sensors. When there are changes to the biological status of the cells analogue electronic readout signals are measured automatically and in real time, and are converted to digital signals for processing and for analysis. In a RT-CES system, a cell index (arbitrary representation of change in impedance) is automatically derived and provided based on measured electrode impedance values. […]
as §3

For experiment [6], the system named is NCI-H460 cells (human large cell lung carcinoma cell line). Described as above. The note with it: 72 hr post compound treatment, read-out: calculated IC50.
Excerpt: as §1, §2, §3
NCI-H460 cells (human large cell lung carcinoma cell line) were seeded into wells of 96 well E-plate devices (Roche) with an initial seeding density of 5000 cells per well and were pre-incubated in incubator under standard cell culture condition for about 24 hours. […] The cell status was monitored prior to and after the compound addition using xCelligence system (Roche). […]

Experiment [7] concerns A549 human lung cancer cells. Put plainly: Mitotic arrest, phosphohistone H3 staining (mitotic index). The note with it: 33 nM. The source says: Microtubules are extremely important in the process of mitosis, during which the duplicated chromosomes of a cell are separated into two identical sets before cleavage of the cell into two daughter cells. Compounds which target microtubules such as paclitaxel and vinblastine suppress the microtubule dynamics and block the process of mitosis. As consequence, cells will be arrested at G2/M phase. To test if COMPOUND O influences the process of mitosis in cancer cell dividing, A549 human lung cancer cells were treated with 33 nM of COMPOUND O and paclitaxel, or 0.2% DMSO that served as negative control. The treated cells were stained with an antibody against phosphohistone H3, a marker for cells undergoing mitosis and mitotic arrest. […] It was 44±8%, 45±3% and 3±1% for paclitaxel, COMPOUND O and DMSO treated A549, respectively.

Where a name gives a salt, the structure may show the parent alone.

For `CC[C@]1(O)C[C@H]2CN(CCc3c([nH]c4ccccc34)[C@@](C(=O)OC)(c3cc4c(cc3OC)N(C=O)[C@H]3[C@@](O)(C(=O)OC)[C@H](OC(C)=O)[C@]5(CC)C=CCN6CC[C@]43[C@@H]65)C2)C1` [vincristine], the IC50 in experiment [1] is 4.06 nM; in experiment [2], 4.31 nM; in experiment [3], 1.3 nM; in experiment [4], 5.05 nM; in experiment [5], 3.75 nM; in experiment [6], 10.4 nM.
Consider `CC(=O)O[C@H]1C(=O)[C@@]2(C)[C@H]([C@H](OC(=O)c3ccccc3)[C@]3(O)C[C@H](OC(=O)[C@H](O)[C@@H](NC(=O)c4ccccc4)c4ccccc4)C(C)=C1C3(C)C)[C@]1(OC(C)=O)CO[C@@H]1C[C@@H]2O` [paclitaxel], for which the concentration for half-maximal inhibition (IC50) in experiment [1] was 8.86 nM; in experiment [2], 12.3 nM; in experiment [3], 4.46 nM; in experiment [5], 1.02 nM; in experiment [6], 2.68 nM. This compound gave a mitotic index in experiment [7] of 44±8%.
In the case of `CCc1ccc(Nc2nc(-c3c(C)nc4sccn34)cs2)cc1` [COMPOUND O, 2-(4-ethylphenyl)amino-4-(6-methylimidazo[2,1-b]thiazol-5-yl)-thiazole monohydrobromide], the IC50 in experiment [1] is 6.6 nM; in experiment [2], 13.1 nM; in experiment [3], 11.6 nM; in experiment [4] it was 1.76 nM; in experiment [5], 67 nM; in experiment [6] it was 10.9 nM. The compound also gave a mitotic index in experiment [7] of 45±3%.

(Values after patent US20110207751A1, “HETEROCYCLIC COMPOUNDS AND USES AS ANTICANCER AGENTS” (priority 2010, published 2011).)
